According to patent USRE46718E1, “Compositions comprising Lactobacillus plantarum strains in combination with tannin and new Lactobacillus plantarum strains” (Probi AB, priority 2003, dated 2018):

Tests used:
[1] = Screening for tannase activity (breakdown of methylgallate, Osawa and Walsh); type: biochemical; design: key to Tannase activity (positive or negative): +: Positive tannase activity is shown as a green to brown coloration of free gallic acid in the cell-suspension after prolonged exposure to oxygen in an alkaline condition; conditions: for Tannase activity (positive or negative): 24 h incubation with methylgallate at 37° C., visual colour; for Quantitative tannase activity (A440/A620): ratio of A440 after 24 h incubation with methylgallate and A620 of cell-suspension at start; for Tannase activity, in words: where comparative, versus Lactobacillus plantarum 299v
Protocol: The applied method to detect tannase activity has earlier been described by Osawa and Walsh (1993). The detecting principle is that the breakdown of the tannin, methylgallate, is measured by the following procedure:
The test bacterium is cultured anaerobically on MRSagar (Merck, Darmstadt, Germany) for 2 d at 37° C. and then the cells are harvested and suspended in 5 ml 0.9% (w/v) NaCl. The cell-suspension is centrifuged and the cells re-suspended in 10 ml 0.9% NaCl and the absorbance is measured at 620 nm (0.9% NaCl solution as standard). The cell-suspension is diluted until the absorbance is between 0.1 and 0.6 (spectrophotometer, Pharmacia LKB, Novaspec II). After centrifugation, the cells are re-suspended in 1 ml methylgallate-buffer (3.7 g/l methylgallate [Aldrich Chemical Company, Inc., Milwaukee, Wis., USA], 4.5 g/l NaH2PO4, pH=5.0 [sterile filtered]) and the tube is incubated at 37° C. for 24 h. One ml of NaHCO3-buffer (42 g NaHCO3 per litre, pH=8.6) is added and the solution is incubated for 1 h at room temperature, before measurement of the absorbance at 440 nm (NaHCO3-buffer as standard). The colour of the suspension is measured by visual determination.
The colour should be brown or green to be graded as positive tannase activity. A quantitative value of the tannase activity was obtained by the ratio between the absorbance of the cell-suspension (A620; amount of cells) at the start of the incubation with methylgallate versus the absorbance after the 24 h incubation with methylgallate (A440; coloration of free gallic acids after exposure to oxygen in an alkaline condition).

[2] = test system: human colonic carcinoma cell-line HT-29; assay: Adhesion to HT-29 cells; type: cell-based; conditions: for Adhesion to HT-29 cells, in salt solution: HBSS, 30 minutes, mean of at least 40 cells; for Capacity to adhere to human colonic mucosa cells, in words: compared with Lactobacillus plantarum 299v
Protocol: In total 32 L. plantarum strains isolated from human mucosa were tested as to adherence to intestinal epithelial cells of human colonic carcinoma cell-line HT-29 with a mannose-specific binding (method as described by Wold, A, et al, Infection and Immunity, October 1988, p. 2531-2537). Cells of the human adenocarcinoma cell line HT-29 were cultured in Eagle's medium supplemented with 10% fetal calf serum, 2 mM L-glutamine and 50 ig/ml of gentamicin (Sigma Chemical Co., Saint Louis, Mo., USA). A few days after the cells had reached confluence they were detached with EDTA-containing buffer (0.54 mM), washed and suspended in Hank's balanced salt solution (HBSS) at 5×10^6/ml. The bacteria were harvested, washed and suspended in HBSS at 5×10^9/ml (2× an optical density of 1.5 at 597 nm). Cells, bacteria and HBSS were mixed in the ratio 1:1:3 and incubated with end-over-end rotation for 30 minutes at 4EC. The cells were washed once with ice cold PBS and fixed with neutral buffered formalin (Histofix, Histolab, Götebrog, Sweden). The number of bacteria attached to each of at least 40 cells was determined using interference contrast microscopy (500× magnification, Nicon Optophot, with interference contrast equipment, Bergström Instruments, Göteborg, Sweden) and the mean number of bacteria per cell was calculated.

[3] = test system: ischemia/reperfusion injury; assay: Lipid peroxidation after ischemia/reperfusion injury in mice (LPO-586 colorimetric assay); type: in vivo, Balb/C mice
Excerpt: Fifteen Balb/C mice were divided into five groups (3 mice per group) and fed different combinations of normal food, rose hip powder (rich in tannins) and the tannase positive strain Lactobacillus plantarum 299v. The constituents were mixed with some water to get a mushy consistency. Groups 1 and 2 were given normal mouse food, Group 3 got the normal food supplemented with rose hip powder (1.6 g per day), Group 4 got normal food supplemented with L. plantarum 299v (10^10 bacteria per dose) and Group 5 got normal food supplemented with both the rose hip powder and L. plantarum 299v. The mice were fed once a day for 6-8 days before inducing an ischemia/reperfusion injury. The injury was done according to the following dissection protocol: Mice were given 0.15 ml of Ketamine/Xylazine solution (7.85 mg/ml and 2.57 mg/ml, respectively) subcutaneously for anesthesia. […] 1.0 ml PBS was injected into the peritoneal cavity for fluid resuscitation. […]
Lipid peroxidation is a well-established mechanism of cellular injury and is used as an indicator of oxidative stress in cells and tissues. […] LPO-586™ is a colorimetric assay designed to quantify MDA and is based on the reaction of a chromogenic reagent, N-methyl-2-phenylindole with MDA at 45° C. One molecule of MDA reacts with two molecules of N-methyl-2-phenylindole to yield a stable chromophore with maximal absorbance at 586 nm.

[4] = test system: Bacterial flora in caecum; assay: Bacterial flora in caecum after ischemia/reperfusion injury in mice (viable count); type: in vivo, Balb/C mice; conditions: caecum stool after ischemia/reperfusion
Excerpt: Fifteen Balb/C mice were divided into five groups (3 mice per group) and fed different combinations of normal food, rose hip powder (rich in tannins) and the tannase positive strain Lactobacillus plantarum 299v. The constituents were mixed with some water to get a mushy consistency. Groups 1 and 2 were given normal mouse food, Group 3 got the normal food supplemented with rose hip powder (1.6 g per day), Group 4 got normal food supplemented with L. plantarum 299v (10^10 bacteria per dose) and Group 5 got normal food supplemented with both the rose hip powder and L. plantarum 299v. The mice were fed once a day for 6-8 days before inducing an ischemia/reperfusion injury. The injury was done according to the following dissection protocol: Mice were given 0.15 ml of Ketamine/Xylazine solution (7.85 mg/ml and 2.57 mg/ml, respectively) subcutaneously for anesthesia. […] 1.0 ml PBS was injected into the peritoneal cavity for fluid resuscitation. […] The abdomen was then closed using a running vicryl 3-0 suture. The animal was allowed to awake from anesthesia and was removed from the warming pad and placed back into the cage. After 4 h and 15 min, the animal was given anesthesia again and tissue and stool samples were obtained in the following order and placed in preweighed tubes: liver tissue, ilium mesentery tissue and cecum stool for bacteriological sampling, and cecum and ilium tissue for colorimetric assay for lipid peroxidaton, and cecum and ilium tissue for histological examination. The samples for bacteriological evaluation were weighed and placed in freezing media and frozen immediately at −70° C. Samples for colorimetric assay (LPO586) were rinsed in PBS, weighed, homogenized, aliquoted and then frozen immediately at −70° C.
Bacteriological evaluation was performed by viable count by anaerobic incubation (BBL Gas Pak Plus, Becton Dickinson and Company, Sparks, Md., USA) on Rogosa-agar (Merck, Darmstadt, Germany) at 37° C. for 3 d, VRBD-agar (Merck, Darmstadt, Germany) at 37° C. for 24 h and Brain heart infusion agar (BHI; Oxoid, Basingstoke, Hampshire, England) at 37° C. for 3 d. Viable count on BHI was also done aerobically.

Substance | Tannase activity (positive or negative) [1] | Quantitative tannase activity (A440/A620) [1] | Adhesion to HT-29 cells, in salt solution [2] | Adhesion to HT-29 cells, in presence of methyl-mannoside [2] | MDA (lipid peroxidation), in words ([3]; compared to the positive control (Group 2)) | Malondialdehyde (MDA) per g colonic tissue [median-value] ([3]; mice fed once a day for 6-8 days before 30 min ischemia, sampled 4 h 15 min after reperfusion, Control B 6.3, uninjured 4.3) | Median of viable count, Total aerobes ([4]; BHI agar aerobic) | Median of viable count, Total anaerobes ([4]; BHI agar anaerobic) | Median of viable count, Lactobacilli ([4]; Rogosa-agar) | Median of viable count, Enterobacteriaceae ([4]; VRBD-agar) | Tannase activity, in words [1] | Capacity to adhere to human colonic mucosa cells, in words [2]
Lactobacillus plantarum 299v, DSM 9843 [Strain 299v] | + | 6.2 | 11.7 number of bacteria per cell | 3.4 number of bacteria per cell | decreased the MDA | 5.8 | 4 × 10^9 CFU per a caecal content | 3 × 10^9 CFU per a caecal content | 2 × 10^9 CFU per a caecal content | 3 × 10^3 CFU per a caecal content |  | 
Lactobacillus plantarum HEAL 99, DSM 15316 | + | 6.8 | 20 number of bacteria per cell | 2.0 number of bacteria per cell |  |  |  |  |  |  | higher tannase activity | higher capacity to adhere
Lactobacillus plantarum HEAL 9, DSM 15312 | + | 6.4 | 20 number of bacteria per cell | 2.1 number of bacteria per cell |  |  |  |  |  |  | higher tannase activity | higher capacity to adhere
Lactobacillus plantarum HEAL 19, DSM 15313 | + | 7.4 | 23 number of bacteria per cell | 5.0 number of bacteria per cell |  |  |  |  |  |  | higher tannase activity | higher capacity to adhere
